This note sets out measurements from patent publication EP3907227A1, “TRILOBINE DERIVATIVES AND THEIR USE THEREOF IN THE TREATMENT OF MALARIA” (Institut Pasteur, priority 2020, dated 2021).

The test system of the first assay is Strain 5248. The experiment in a line: Inhibition of proliferation of multi-resistant field isolates, asynchronous asexual stages, SYBR-green assay. Conditions: Plasmodium falciparum, 72 h, read-out: IC50 nM Strain 5248 mean*. The assay is classed as cell-based, P. falciparum. As to the method:
(§1) Compounds 63 and 84 were evaluated regarding the inhibition of the proliferation of multi-resistant field isolates adapted to culture. A panel of four Cambodian strains bearing different molecular markers of resistance were selected: 3D7: Laboratory strain, drug-sensitive, 5150: Cambodian isolate resistant to Chloroquine and Pyrimethamine, 6591: Cambodian isolate resistant to Chloroquine, Pyrimethamine, 5248: Cambodian isolate resistant to Chloroquine, Pyrimethamine, Mefloquine and Artemisinin, 6320: Cambodian isolate resistant to Chloroquine, Pyrimethamine, Piperaquine and Artemisinin.
(§2) IC50 were obtained against asynchronous asexual stages using SYBR-green assay after 72h of incubation with a serial dilution of the compounds. Data represents the mean and SD of 3 independent experiments ran in triplicates. Table 2 illustrates mean IC50 values and their standard deviation in nanomolar.
`CCN(CC)CCCC(C)Nc1ccnc2cc(Cl)ccc12` (stereo not shown) [Chloroquine]: the IC50 amounted to 98 nM.
On to `Clc1ccc2c(N3CCN(CCCN4CCN(c5ccnc6cc(Cl)ccc56)CC4)CC3)ccnc2c1` [Piperaquine], for which the IC50 was determined as 33 nM.

The same assay, now with this note: Plasmodium falciparum; 72h; Cambodian isolate resistant to Chloroquine, Pyrimethamine, Mefloquine and Artemisinin; mean of three replicates; read-out: IC50 nM Strain 5248 mean*.
Regarding `CCc1nc(N)nc(N)c1-c1ccc(Cl)cc1` [Pyrimethamine], the IC50 was greater than 5000 nM.

Another assay relates to Strain 6320. The assay is described as above. Conditions: Plasmodium falciparum, 72 h, read-out: IC50 nM Strain 6320 mean*. The assay is classed as cell-based, P. falciparum. As to the method:
as §1, §2
In the case of `CCN(CC)CCCC(C)Nc1ccnc2cc(Cl)ccc12` (stereo not shown) [Chloroquine], the IC50 amounted to 109 nM.
As for `Clc1ccc2c(N3CCN(CCCN4CCN(c5ccnc6cc(Cl)ccc56)CC4)CC3)ccnc2c1` [Piperaquine], the IC50 was greater than 200 nM.

The assay is the same for the next values; noted with them: Plasmodium falciparum; 72h; Cambodian isolate resistant to Chloroquine, Pyrimethamine, Piperaquine and Artemisinin; mean of three replicates; read-out: IC50 nM Strain 6320 mean*.
On to `CCc1nc(N)nc(N)c1-c1ccc(Cl)cc1` [Pyrimethamine], for which the IC50 is greater than 5000 nM.

For another assay, the system named is Strain 5150. The assay is described as above. The assay is classed as cell-based, P. falciparum. Conditions: Plasmodium falciparum, 72 h, read-out: IC50 nM Strain 5150 mean*. As to the method: as §1, §2
Turning to `CCN(CC)CCCC(C)Nc1ccnc2cc(Cl)ccc12` (stereo not shown) [Chloroquine], the IC50 amounted to 55 nM.
Regarding `Clc1ccc2c(N3CCN(CCCN4CCN(c5ccnc6cc(Cl)ccc56)CC4)CC3)ccnc2c1` [Piperaquine], the IC50 is 26 nM.

The assay is the same for the next values; noted with them: Plasmodium falciparum; 72h; Cambodian isolate resistant to Chloroquine and Pyrimethamine; mean of three replicates; read-out: IC50 nM Strain 5150 mean*.
For `CCc1nc(N)nc(N)c1-c1ccc(Cl)cc1` [Pyrimethamine], the IC50 was greater than 5000 nM.

Another assay concerns Strain 6591. The assay is described as above. Format: cell-based, P. falciparum. Conditions: Plasmodium falciparum, 72 h, read-out: IC50 nM Strain 6591 mean*. As to the method: as §1, §2
Turning to `CCN(CC)CCCC(C)Nc1ccnc2cc(Cl)ccc12` (stereo not shown) [Chloroquine], the IC50 is 64 nM.
Still for that read-out and setting: as for `Clc1ccc2c(N3CCN(CCCN4CCN(c5ccnc6cc(Cl)ccc56)CC4)CC3)ccnc2c1` [Piperaquine], the figure is 34 nM.

Still in this assay, the particulars now being: Plasmodium falciparum; 72h; Cambodian isolate resistant to Chloroquine, Pyrimethamine; mean of three replicates; read-out: IC50 nM Strain 6591 mean*.
With `CCc1nc(N)nc(N)c1-c1ccc(Cl)cc1` [Pyrimethamine], the IC50 was greater than 5000 nM.

The next assay deals with Parasites. The experiment in a line: Parasite reduction rate (time needed to kill the parasites). Format: cell-based. Conditions: survival curves, duration of treatment versus log viable parasites, Figure 3. As to the method: Parasites are incubated (see for example Sanz et al. PLoS ONE 7, e30949 (2012)) with a compound of the invention (or a reference) for different time-windows, washed, and diluted serially in 96-well plates in fresh red blood cells. Parasites are kept in culture for 3 to 4 weeks, when growth is assessed to evaluate the number of parasites that survive-correlated to the number of wells where growth is found. Survival curves are obtained by plotting the duration of treatment versus the log of the number of viable parasites (figure 3).
Regarding `Oc1ccc2cc1Oc1ccc(cc1)CC1NCCc3cc(O)c4c(c31)Oc1cc3c(cc1O4)CCNC3C2` (stereo not shown) [Compound 121], the “Speed of action (parasite reduction rate)” value is on record as “act as fast as dihydroartemisinin (DHA)”.

For another assay, the system named is P. falciparum NF54 (drug-sensitive line). Briefly: Inhibition of proliferation of asynchronous asexual cultures (SYBR Green I based assay, 72h). The conditions noted are these: Plasmodium falciparum, NF54, 72 h, SYBR Green I; read-out: Malaria CI50. Format: cell-based. As to the method:
Compounds were provided at a concentration of 10 mM in DMSO.
P. falciparum parasite are cultured using standard protocol (Trager and Jensen, Science 1976, 193(4254), 673-675). Briefly, parasites are cultured at 4% hematocrit (O+ human blood, Etablissement Français du Sang, France) in RPMI1640 complemented with 0.1% Albumax I, HEPES buffer, hypoxanthine, and gentamycin. They are incubated at 37°C under an atmosphere of 5% CO2 and 5% O2.
Compounds of the invention were assayed for a first screen at 5µM in duplicate against asynchronous asexual cultures of P. falciparum NF54 (drug-sensitive line) containing mostly rings (2% hematocrit. 0.5% starting parasitemia). Plates were incubated for 72h at 37°C under a reduced oxygen atmosphere. Parasite growth was assessed using the SYBR Green I based assay.
IC50 were determined using Graphpad Prism 6 software. Dihydroartemisinin (starting concentration 50nM) and DMSO were used as positive and negative controls.
`COc1ccc2cc1Oc1ccc(cc1)CC1c3c(cc(OC)c4c3Oc3cc5c(cc3O4)CCN(C(=O)Nc3ccncc3)C5C2)CCN1C` (stereo not shown) [Compound 23]: the IC50 stood at 223 ± 58 nM.
With `COc1ccc2cc1Oc1ccc(cc1)CC1c3c(cc(OC)c4c3Oc3cc5c(cc3O4)CCN(C(=O)Nc3cccnc3)C5C2)CCN1C` (stereo not shown) [Compound 27], the IC50 is 383 ± 173 nM.
On to `COc1ccc2cc1Oc1ccc(cc1)CC1c3c(cc(OC)c4c3Oc3cc5c(cc3O4)CCN(C)C5C2)CCN1C(=O)NCc1ccccc1` (stereo not shown) [Compound 28], for which the IC50 is 504 ± 134 nM.
As for `COc1ccc2cc1Oc1ccc(cc1)CC1c3c(cc(OC)c4c3Oc3cc5c(cc3O4)CCN(C(=O)NCc3ccncc3)C5C2)CCN1C` (stereo not shown) [Compound 31], the IC50 is 151 ± 21 nM.
Still for that read-out and setting: under `COc1ccc2cc1Oc1ccc(cc1)CC1c3c(cc(OC)c4c3Oc3cc5c(cc3O4)CCN(C)C5C2)CCN1CCOCCOCCO` (stereo not shown) [Compound 42] stands 437 ± 83 nM; under `COc1ccc2cc1Oc1ccc(cc1)CC1c3c(cc(OC)c4c3Oc3cc5c(cc3O4)CCN(CCOCCOCCO)C5C2)CCN1C` (stereo not shown) [Compound 43], 438 ± 95 nM.
On to `COc1ccc2cc1Oc1ccc(cc1)CC1c3c(cc(OC)c4c3Oc3cc5c(cc3O4)CCN(C)C5C2)CCN1CCCN(C)C` (stereo not shown) [Compound 46], for which the IC50 is 169 ± 10 nM.
For the molecule `COc1ccc2cc1Oc1ccc(cc1)CC1c3c(cc(OC)c4c3Oc3cc5c(cc3O4)CCN(C)C5C2)CCN1CC(O)CO` (stereo not shown) [Compound 48], the IC50 was 195 ± 55 nM.
Take `COc1ccc2cc1Oc1ccc(cc1)CC1c3c(cc(OC)c4c3Oc3cc5c(cc3O4)CCN(C(=O)NCCN3CCN(C)CC3)C5C2)CCN1C` (stereo not shown) [Compound 60]: the IC50 was 227 ± 59 nM.
`COc1cc2c3c4c1Oc1cc5c(cc1O4)C(Cc1ccc(OCCCN4CCN(C)CC4)c(c1)Oc1ccc(cc1)CC3N(C)CC2)N(C)CC5` (stereo not shown) [Compound 68]: the IC50 came out at 189 nM.

The assay is the same for the next values; noted with them: Plasmodium falciparum; NF54, 72h, SYBR Green I; read-out: Malaria CI50.
With `Oc1ccc2cc1Oc1ccc(cc1)CC1NCCc3cc(O)c4c(c31)Oc1cc3c(cc1O4)CCNC3C2` (stereo not shown) [Compound 121], the IC50 came to 115 ± 55 nM.

Still in this assay, the particulars now being: Plasmodium falciparum; first screen at 5µM in duplicate, 72h, NF54; read-out: % survival @5uM.
As to `COc1ccc2cc1Oc1ccc(cc1)CC1c3c(cc(OC)c4c3Oc3cc5c(cc3O4)CCN(C(=O)Nc3ccncc3)C5C2)CCN1C` (stereo not shown) [Compound 23], the activity at 5 µM was 13.4%.
As to `COc1ccc2cc1Oc1ccc(cc1)CC1c3c(cc(OC)c4c3Oc3cc5c(cc3O4)CCN(C(=O)Nc3cccnc3)C5C2)CCN1C` (stereo not shown) [Compound 27], the activity at 5 µM turned out to be 12.7%.
The same measure, in the same setting: as for `COc1ccc2cc1Oc1ccc(cc1)CC1c3c(cc(OC)c4c3Oc3cc5c(cc3O4)CCN(C)C5C2)CCN1C(=O)NCc1ccccc1` (stereo not shown) [Compound 28], the figure is 14.4%; as for `COc1ccc2cc1Oc1ccc(cc1)CC1c3c(cc(OC)c4c3Oc3cc5c(cc3O4)CCN(C(=O)NCc3ccncc3)C5C2)CCN1C` (stereo not shown) [Compound 31], 14.8%; as for `COc1ccc2cc1Oc1ccc(cc1)CC1c3c(cc(OC)c4c3Oc3cc5c(cc3O4)CCN(C)C5C2)CCN1CCOCCOCCO` (stereo not shown) [Compound 42], 12.9%.
Still for that read-out and setting: as for `COc1ccc2cc1Oc1ccc(cc1)CC1c3c(cc(OC)c4c3Oc3cc5c(cc3O4)CCN(CCOCCOCCO)C5C2)CCN1C` (stereo not shown) [Compound 43], the figure is 13.3%; as for `COc1ccc2cc1Oc1ccc(cc1)CC1c3c(cc(OC)c4c3Oc3cc5c(cc3O4)CCN(C)C5C2)CCN1CCCN(C)C` (stereo not shown) [Compound 46], 14.2%.
Turning to `COc1ccc2cc1Oc1ccc(cc1)CC1c3c(cc(OC)c4c3Oc3cc5c(cc3O4)CCN(C)C5C2)CCN1CC(O)CO` (stereo not shown) [Compound 48], the activity at 5 µM came to 11.8%.
For `COc1ccc2cc1Oc1ccc(cc1)CC1c3c(cc(OC)c4c3Oc3cc5c(cc3O4)CCN(C(=O)NCCN3CCN(C)CC3)C5C2)CCN1C` (stereo not shown) [Compound 60], the activity at 5 µM was 15.4%.
As to `COc1cc2c3c4c1Oc1cc5c(cc1O4)C(Cc1ccc(OCCCN4CCN(C)CC4)c(c1)Oc1ccc(cc1)CC3N(C)CC2)N(C)CC5` (stereo not shown) [Compound 68], the activity at 5 µM worked out at 14.8%.

A further assay has as its system Lab. Strain 3D7. The experiment in a line: Inhibition of proliferation, asynchronous asexual stages, SYBR-green assay, laboratory strain. The assay is classed as cell-based, P. falciparum. Conditions: Plasmodium falciparum, 3D7, 72 h, read-out: IC50 nM Lab. Strain 3D7 mean*. As to the method:
as §1, §2
Take `CCN(CC)CCCC(C)Nc1ccnc2cc(Cl)ccc12` (stereo not shown) [Chloroquine]: the IC50 turned out to be 13 nM.
`Clc1ccc2c(N3CCN(CCCN4CCN(c5ccnc6cc(Cl)ccc56)CC4)CC3)ccnc2c1` [Piperaquine]: the IC50 stood at 41 nM.

The assay is the same for the next values; noted with them: Plasmodium falciparum, 3D7; 72h; laboratory strain, drug-sensitive; mean of three replicates; read-out: IC50 nM Lab. Strain 3D7 mean*.
In the case of `CCc1nc(N)nc(N)c1-c1ccc(Cl)cc1` [Pyrimethamine], the IC50 turned out to be 30 nM.
